The text below walks through data of patent publication US20100197603A1, “USE OF RGDSPASSKP AND OPTIONALLY ANGIOTENSIN II AS THERAPEUTIC AGENTS IN THE TREATMENT OF EG S. PNEUMONIAE INFECTIONS” (priority 2007, published 2010).

Where no end group is shown, it is not given here.

In one assay the test system is HIV-1IIIB. Put plainly: HIV-1 antiviral assay in CEM-SS cells (MTS readout).
A further assay deals with HCMV strain AD169. The assay is described as follows: HCMV plaque formation assay in MRC-5 cells. As to conditions: for inhibition of HCMV plaque formation as compared to the virus control: 10 micrograms per ml, 7-10 days.
In a further assay the test system is Streptococcus pneumoniae. The assay is described as follows: Streptococcus pneumoniae growth assay. It counts as cell-based. To be noted: 10 micrograms per ml; 5×10^5 CFU/mL; read visually.
The subject of a further assay is murine spleen cells. The assay is described as follows: Th1/Th2 cytokine profiling assay (Ovalbumin-restimulated spleen cells, CBA kit). To be noted: 10 micrograms per ml, Ovalbumin restimulation, 72 hours. It counts as cell-based, Balb/c mice.
Assay [1] deals with Primary Human endothelial cells (HUVEC). The assay is described as follows: Endothelial cell migration assay. It counts as cell-based. As to conditions: 10 micrograms per ml, 22 hours.
The subject of a further assay is HUVEC. The assay is described as follows: Endothelial tube formation assay. It counts as cell-based, human. As to conditions: 10 micrograms per ml, 20 hours.
Assay [2] concerns hepatitis B virus (HBV) ayw strain. The assay is described as follows: HBV experimental assay system (HepG2-2.2.15, TaqMan PCR of secreted HBV DNA). It counts as cell-based. To be noted: 10 micrograms per ml, six days, HBV DNA by TaqMan PCR. The text has this:
HepG2-2.2.15 is a stable cell line containing the hepatitis B virus (HBV) ayw strain genome (ATCC Cat. No. CRL-11997). Antiviral compounds blocking any late step of viral replication such as transcription, translation, pregenome encapsidation, reverse transcription, particle assembly and release can be identified and characterized using this cell line. In this assay, an active compound will reduce the production of secreted HBV from cells, measured by utilizing real time quantitative PCR (TaqMan) assay to directly and accurately measure HBV DNA copies.
HepG2-2.2.15 cells were plated in 96-well microtiter plates. After 16-24 hours the confluent monolayer of HepG2-2.2.15 cells was washed and the medium was replaced with complete medium containing test peptides—10 micrograms per ml—in duplicate. […] Six days following the initial administration of the peptides, the cell culture supernatants was collected, treated with pronase and DNAse and then used in a real-time quantitative TaqMan PCR assay. The PCR-amplified HBV DNA was detected in real-time by monitoring increases in fluorescence signals that result from the exonucleolytic degradation of a quenched fluorescence probe molecule that hybridizes to the amplified HBV DNA. […] Antiviral activity was calculated from the reduction in HBV DNA levels (% virus control). […]
Background: Quantitative PCR measures a nucleic acid by following its amplification.

For `Cc1cn([C@H]2C[C@H](N=[N+]=[N-])[C@@H](CO)O2)c(=O)[nH]c1=O` [AZT], the “antiviral activity of positive control compounds (HIV-1)” value in the assay on HIV-1IIIB is reported as “expected levels of antiviral activity”.
As for `Nc1nc(O)c2ncn(COC(CO)CO)c2n1` [Ganciclovir, reference compound], the “antiviral activity of positive control compound (HCMV)” value with HCMV strain AD169 (positive control) is reported as “expected levels of antiviral activity”.
On to `CC(C)(C)NC(=O)[C@@H]1CN(Cc2cccnc2)CCN1C[C@@H](O)C[C@@H](Cc1ccccc1)C(=O)N[C@H]1c2ccccc2C[C@H]1O` [indinavir], for which the “antiviral activity of positive control compounds (HIV-1)” value in the assay with HIV-1IIIB is reported as “expected levels of antiviral activity”.
“Arg-Gly-Asp-Ser-Pro-Ala-Ser-Ser-Lys-Pro-OH (RGDSPASSKP-OH) [Peptide 1]”: the “inhibition of the growth of Streptococcus pneumoniae” value in the assay with Streptococcus pneumoniae came out at 100%. The “inhibition of HCMV plaque formation as compared to the virus control” value in the assay with HCMV strain AD169 is “did not inhibit”. In addition, in the assay with murine spleen cells, the “change of the production of IL-5” value is given as “did not significantly change”, the “induction of the production of IFN-γ” value amounted to 24.5%, the “induction of the production of IL-2” value was determined as 134.2% and the “induction of the production of IL-4” value worked out at 132.5%. Further, in the assay with murine spleen cells, the “induction of the production of TNF-alpha” value was found to be 34.0%. Besides, the “inhibition of the migration of human endothelial cells” value in assay [1] worked out at 2%. Besides, the “inhibition of the tube formation of human endothelial cells” value in the assay with HUVEC is 54%. In addition, in assay [2], the “inhibition of HBV replication as compared to the virus control infection” value is listed as 57.8%.
Turning to “Asp-Arg-Val-Tyr-Ile-His-Pro-Phe-OH (DRVYIHPF-OH) [Peptide 2]”, the “inhibition of the growth of Streptococcus pneumoniae” value in the assay on Streptococcus pneumoniae came out at 100%. Further, in the assay with HCMV strain AD169, the “inhibition of HCMV plaque formation as compared to the virus control” value is on record as “did not inhibit”. For the same molecule, in the assay with murine spleen cells, the “change of the production of IL-5” value is “did not significantly change”, the “induction of the production of IFN-γ” value is on record as 36.4%, the “induction of the production of IL-2” value is “did not significantly change” and the “induction of the production of IL-4” value is on record as 55%. For the same molecule, the “induction of the production of TNF-alpha” value in the assay with murine spleen cells is on record as “did not significantly change”. Further, the “inhibition of the migration of human endothelial cells” value in assay [1] came to 10%. The “inhibition of HBV replication as compared to the virus control infection” value in assay [2] came out at 43.4%.
